Values quoted from earlier work in patent US20070232589A1, “Pharmaceutical Composition And Method For Treating Neurodegenerative Disorders” (Myriad Genetics, Incorporated, priority 2004, published 2007).
Where two headings read alike, the source gives them in different places.

Assays:
[1] = clinical trial; rofecoxib 25 mg daily
[2] = patients having mild cognitive impairment
[3] = in vivo excitotoxic model
[4] = in vivo
[5] = 50 mg and 100 mg doses, human subjects
Aβ42 [6] = details: transgenic mouse model
Aβ42 [7] = details: CHO cells

SMILES: CS(=O)(=O)c1ccc(C2=C(c3ccccc3)C(=O)OC2)cc1 [rofecoxib]
- efficacy for treating AD [1]: failed to show efficacy
- prevention of development of Alzheimer's disease [2]: failed to prevent the development of Alzheimer's disease
- patients who developed AD ([2]; placebo 4.5%): 6.4%
- neuroprotection [3]: provides neuroprotection

SMILES: COc1ccc2cc([C@H](C)C(=O)O)ccc2c1 [Naproxen]
- efficacy for treating AD [1]: failed to show efficacy

SMILES: CC12CC3CC(C)(C1)CC(N)(C3)C2 [memantine]
- efficacy in treating mild-to-moderate AD [4]: showed efficacy

SMILES: C[C@@H](C(=O)O)c1ccc(-c2ccccc2)c(F)c1 [(R)-2-(2-fluoro-4-biphenylyl)propionic acid]
- analgesic effect [5]: produced an analgesic effect
- Aβ42 lowering (Aβ42 [6]): lower Aβ42
- inhibition of COX activity (COX): negligibly inhibits COX activity
- Aβ42 lowering (Aβ42 [7]): lower Aβ42
